# Reference: ChEMBL document CHEMBL1765059, “Bunodosine 391: an analgesic acylamino acid from the venom of the sea anemone Bunodosoma cangicum” (J Nat Prod, 2011)
# Activity calls are given as the source filed them.
# What was measured:
# Assay type in all cases: functional, organism-based
# [1] = test system: Rattus norvegicus; assay: Antinociceptive activity against carrageenan-induced hyperalgesia in Wistar rat assessed as increase in pain threshold at 105 nm/paw, i.pl in presence of 5 mg/kg of nonselective serotonin antagonist methysergide treated 30 mins before compound challenge; parameters: dose 5 mg/kg
# [2] = test system: Rattus norvegicus; assay: Antinociceptive activity against carrageenan-induced hyperalgesia in Wistar rat assessed as increase in pain threshold at 105 nm/paw, i.pl administered after 150 mins of carrageenan challenge by paw pressure test
# [3] = species: Rattus norvegicus; assay: Antinociceptive activity against carrageenan-induced hyperalgesia in Wistar rat assessed as increase in pain threshold at 105 nm/paw, i.pl in presence of 1 ug/paw of opioid antagonist naloxone treated 30 mins before compound challenge
# [4] = test system: Rattus norvegicus; assay: Antiinflammatory activity against carrageenan-induced edema in Wistar rat assessed as paw thickness at 105 nm/paw i.pl administered before 30 mins of carrageenan challenge
# [5] = test system: Rattus norvegicus; assay: Antinociceptive activity in i.pl dosed Wistar rat assessed as increase in pain threshold by paw pressure test
smiles,measurement,setting,value
O=C(Cc1c[nH]c2cc(Br)ccc12)N[C@@H](Cc1c[nH]cn1)C(=O)O,Activity,[1],inactive
same,inhibition,[2],Active
same,Activity,[3],Active
same,inhibition,[4],inactive
same,Activity,[5],Dose-dependent effect
